# Reference: PubChem BioAssay (NCI)
#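 Results reflect a 48-hour exposure of cells in 96-well plates to compound at five concentrations. GI50: concentration for 50% inhibition of growth. TGI is the concentration that stops growth completely.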
# Legend:
# Experiment in all cases: NCI tumour cell line growth inhibition, 48 h
# 786-0 renal = system: 786-0 renal
# A498 renal = system: A498 renal
# A549 NSCLC = system: A549 NSCLC
# ACHN renal = system: ACHN renal
# BT-549 breast = system: BT-549 breast
# CAKI-1 renal = system: CAKI-1 renal
# CCRF-CEM leukemia = system: CCRF-CEM leukemia
# COLO 205 colon = system: COLO 205 colon
# DU-145 prostate = system: DU-145 prostate
# EKVX NSCLC = system: EKVX NSCLC
# HCC-2998 colon = system: HCC-2998 colon
# HCT-116 colon = system: HCT-116 colon
# HCT-15 colon = system: HCT-15 colon
# HL-60(TB) leukemia = system: HL-60(TB) leukemia
# HOP-62 NSCLC = system: HOP-62 NSCLC
# HOP-92 NSCLC = system: HOP-92 NSCLC
# HS 578T breast = system: HS 578T breast
# HT29 colon = system: HT29 colon
# IGROV1 ovarian = system: IGROV1 ovarian
# K-562 leukemia = system: K-562 leukemia
# KM12 colon = system: KM12 colon
# LOX IMVI melanoma = system: LOX IMVI melanoma
# M14 melanoma = system: M14 melanoma
# MCF7 breast = system: MCF7 breast
# MDA-MB-231 breast = system: MDA-MB-231 breast
# MOLT-4 leukemia = system: MOLT-4 leukemia
# NCI-H226 lung = system: NCI-H226 lung
# NCI-H23 lung = system: NCI-H23 lung
# NCI-H460 lung = system: NCI-H460 lung
# NCI-H522 lung = system: NCI-H522 lung
# NCI/ADR-RES ovarian = system: NCI/ADR-RES ovarian
# OVCAR-3 ovarian = system: OVCAR-3 ovarian
# OVCAR-4 ovarian = system: OVCAR-4 ovarian
# OVCAR-5 ovarian = system: OVCAR-5 ovarian
# OVCAR-8 ovarian = system: OVCAR-8 ovarian
# PC-3 prostate = system: PC-3 prostate
# RPMI-8226 leukemia = system: RPMI-8226 leukemia
# RXF 393 renal = system: RXF 393 renal
# SF-268 CNS = system: SF-268 CNS
# SF-295 CNS = system: SF-295 CNS
# SF-539 CNS = system: SF-539 CNS
# SK-MEL-2 melanoma = system: SK-MEL-2 melanoma
# SK-MEL-28 melanoma = system: SK-MEL-28 melanoma
# SK-MEL-5 melanoma = system: SK-MEL-5 melanoma
# SK-OV-3 ovarian = system: SK-OV-3 ovarian
# SN12C renal = system: SN12C renal
# SNB-19 CNS = system: SNB-19 CNS
# SW-620 colon = system: SW-620 colon
# TK-10 renal = system: TK-10 renal
# U251 CNS = system: U251 CNS
# UACC-62 melanoma = system: UACC-62 melanoma
# UO-31 renal = system: UO-31 renal
structure (smiles),measurement,setting,value
C#CCOc1c(OC)cc(C(=O)/C(C)=C/c2cccc(N=[N+]=[N-])c2)cc1OC,GI50,786-0 renal,180 nM
same,TGI,786-0 renal,> 100 µM
same,GI50,A498 renal,151 nM
same,TGI,A498 renal,714 nM
same,GI50,A549 NSCLC,406 nM
same,TGI,A549 NSCLC,> 100 µM
same,GI50,ACHN renal,682 nM
same,TGI,ACHN renal,> 100 µM
same,GI50,BT-549 breast,131 nM
same,TGI,BT-549 breast,7.1 µM
same,GI50,CAKI-1 renal,247 nM
same,TGI,CAKI-1 renal,> 100 µM
same,GI50,CCRF-CEM leukemia,117 nM
same,TGI,CCRF-CEM leukemia,> 100 µM
same,GI50,COLO 205 colon,300 nM
same,TGI,COLO 205 colon,2980 nM
same,GI50,DU-145 prostate,296 nM
same,TGI,DU-145 prostate,> 100 µM
same,GI50,EKVX NSCLC,517 nM
same,TGI,EKVX NSCLC,> 100 µM
same,GI50,HCC-2998 colon,464 nM
same,TGI,HCC-2998 colon,> 100 µM
same,GI50,HCT-116 colon,46.8 nM
same,TGI,HCT-116 colon,10.8 µM
same,GI50,HCT-15 colon,49.9 nM
same,TGI,HCT-15 colon,> 100 µM
same,GI50,HL-60(TB) leukemia,41.1 nM
same,TGI,HL-60(TB) leukemia,481 nM
same,GI50,HOP-62 NSCLC,214 nM
same,TGI,HOP-62 NSCLC,> 100 µM
same,GI50,HOP-92 NSCLC,196 nM
same,TGI,HOP-92 NSCLC,9.11 µM
same,GI50,HS 578T breast,250 nM
same,TGI,HS 578T breast,> 100 µM
same,GI50,HT29 colon,57.6 nM
same,TGI,HT29 colon,73.4 µM
same,GI50,IGROV1 ovarian,766 nM
same,TGI,IGROV1 ovarian,> 100 µM
same,GI50,K-562 leukemia,38.3 nM
same,TGI,K-562 leukemia,> 100 µM
same,GI50,KM12 colon,84.5 nM
same,TGI,KM12 colon,> 100 µM
same,GI50,LOX IMVI melanoma,642 nM
same,TGI,LOX IMVI melanoma,> 100 µM
same,GI50,M14 melanoma,178 nM
same,TGI,M14 melanoma,> 100 µM
same,GI50,MCF7 breast,44.7 nM
same,TGI,MCF7 breast,> 100 µM
same,GI50,MDA-MB-231 breast,695 nM
same,TGI,MDA-MB-231 breast,26.1 µM
same,GI50,MOLT-4 leukemia,362 nM
same,TGI,MOLT-4 leukemia,> 100 µM
same,GI50,NCI-H226 lung,15 µM
same,TGI,NCI-H226 lung,> 100 µM
same,GI50,NCI-H23 lung,632 nM
same,TGI,NCI-H23 lung,> 100 µM
same,GI50,NCI-H460 lung,329 nM
same,TGI,NCI-H460 lung,20.2 µM
same,GI50,NCI-H522 lung,155 nM
same,TGI,NCI-H522 lung,800 nM
same,GI50,NCI/ADR-RES ovarian,119 nM
same,TGI,NCI/ADR-RES ovarian,> 100 µM
same,GI50,OVCAR-3 ovarian,51.9 nM
same,TGI,OVCAR-3 ovarian,291 nM
same,GI50,OVCAR-4 ovarian,1190 nM
same,TGI,OVCAR-4 ovarian,> 100 µM
same,GI50,OVCAR-5 ovarian,1230 nM
same,TGI,OVCAR-5 ovarian,> 100 µM
same,GI50,OVCAR-8 ovarian,427 nM
same,TGI,OVCAR-8 ovarian,> 100 µM
same,GI50,PC-3 prostate,132 nM
same,TGI,PC-3 prostate,> 100 µM
same,GI50,RPMI-8226 leukemia,255 nM
same,TGI,RPMI-8226 leukemia,> 100 µM
same,GI50,RXF 393 renal,250 nM
same,TGI,RXF 393 renal,> 100 µM
same,GI50,SF-268 CNS,637 nM
same,TGI,SF-268 CNS,> 100 µM
same,GI50,SF-295 CNS,122 nM
same,TGI,SF-295 CNS,> 100 µM
same,GI50,SF-539 CNS,130 nM
same,TGI,SF-539 CNS,478 nM
same,GI50,SK-MEL-2 melanoma,725 nM
same,TGI,SK-MEL-2 melanoma,> 100 µM
same,GI50,SK-MEL-28 melanoma,29 µM
same,TGI,SK-MEL-28 melanoma,> 100 µM
same,GI50,SK-MEL-5 melanoma,288 nM
same,TGI,SK-MEL-5 melanoma,54.3 µM
same,GI50,SK-OV-3 ovarian,674 nM
same,TGI,SK-OV-3 ovarian,> 100 µM
same,GI50,SN12C renal,677 nM
same,TGI,SN12C renal,> 100 µM
same,GI50,SNB-19 CNS,333 nM
same,TGI,SNB-19 CNS,> 100 µM
same,GI50,SW-620 colon,50.3 nM
same,TGI,SW-620 colon,> 100 µM
same,GI50,TK-10 renal,325 nM
same,TGI,TK-10 renal,38.9 µM
same,GI50,U251 CNS,79.3 nM
same,TGI,U251 CNS,> 100 µM
same,GI50,UACC-62 melanoma,253 nM
same,TGI,UACC-62 melanoma,> 100 µM
same,GI50,UO-31 renal,751 nM
same,TGI,UO-31 renal,> 100 µM
